Assays:
Type in all cases: cell-based, human
[1] = tested on: RBC from healthy subjects; experiment: Reactive oxygen species (ROS) in RBC measured as Median Fluorescence Intensity by flow cytometry; details: 20 min incubation
Method: Blood was collected from four healthy control subjects using citrate as anticoagulant. After low speed centrifugation, the RBC pellet was washed with isotonic phosphate buffered saline (PBS) and re-suspended in PBS (hematocrite 20%). The RBC were prepared as described in Example 7 and the effect of HDL with or without lutein on the oxidative stress status of RBC was determined using RBC from healthy subjects incubated for 20 min in presence of 100 μM HDL isolated from human plasma (Sigma ref L-1567) in presence or absence of 1 μM or 10 μM lutein (Bertin pharma ref. 1001081). Reactive oxygen species (ROS) were measured as Median Fluorescence Intensity (MFI) by flow cytometry similarly to Amer et al., 2003, Eur J Haematol, 70(2):84-90.

RBC from SCD subjects = experiment: RBC sensitivity to cholesterol depletion: hemolysis and membrane deformability by ektacytometry, SCD RBC; details: 10 mM methyl-beta-cyclodextrine, 20 min at 37° C., RBC from 4 SCD subjects
Method: (§1) Blood was collected from four healthy control subjects using citrate as anticoagulant. After low speed centrifugation, the RBC pellet was washed with isotonic phosphate buffered saline (PBS) and re-suspended in PBS (hematocrite 20%).
(§2) To confirm the difference in membrane cholesterol in RBC from SCD compared to healthy subjects, RBC's sensitivity to the cholesterol depleting agent methyl-beta-cyclodextrine was assessed. RBCs were incubated for 20 min at 37° C. in the presence of 2.5 mM or 10 mM methyl-beta-cyclodextrine (Sigma ref. C4555-5G) as described by Motayama et al., 2009, Biol. Pharm. Bull., 32(4) 700-705. RBC membrane deformability was assessed by ektacytometry (Mechatronics) as described by Renoux et al., 2016, Clin Hemorheol Microcirc., 62(2):173-9 at shear rate of 3 Pa and 30 Pa.

RBC from healthy control = experiment: RBC sensitivity to cholesterol depletion: hemolysis and membrane deformability by ektacytometry, healthy RBC; details: 10 mM methyl-beta-cyclodextrine, 20 min at 37° C.
Method: as §1, §2

With `CC1=C[C@H](O)CC(C)(C)[C@H]1/C=C/C(C)=C/C=C/C(C)=C/C=C/C=C(C)/C=C/C=C(C)/C=C/C1=C(C)C[C@@H](O)CC1(C)C` [Lutein, lutein] the “decrease in ROS” value ([1]; 1 μM lutein) was 9.2%, the “% change in ROS MFI vs control” value ([1]; Lutein 1 μM) was −9.2% and the “mean MFI (ROS)” value ([1]; Lutein 1 μM) was 38.3. For the same compound, the “% change in ROS MFI vs control” value ([1]; Lutein 10 μM) was −36.4% and the “mean MFI (ROS)” value ([1]; Lutein 10 μM) was 26.8.

methyl-beta-cyclodextrine was tested, and the “cholesterol depleting effect and resulting hemolysis” value (RBC from SCD subjects) was “resistant”, the hemolysis (RBC from healthy control) was “marked hemolysis” and the RBC deformability (RBC from healthy control; ektacytometry at 3 Pa and 30 Pa) was “significant decrease”.
